In PubChem BioAssay AID504640 (Southern Research Specialized Biocontainment Screening …, 2011):
Calls of active or inactive are those of the source. No rule for the calls is given here. Where a SMILES comes first, the peptide text is derived from it. The star is where a group is joined. Cbz = O=C(OCc1ccccc1)*

Key:
[1] = system: THP-1 cell viability, cytotoxicity; assay: cytotoxicity in THP-1 cells, cytotoxicity control, cell-based (AID 504640)
[2] = as above; settings: THP-1 cell viability, cytotoxicity; at 100 µM (top of the series)

Structure (SMILES) | CC50 [1] [µM] | viability [2]
O=C(/C=C/c1ccccc1)N1CCN(CCN2C(=O)c3cccc4cccc(c34)C2=O)CC1 | 41.2 | –
Cc1cccc(-c2oc3ccc(-c4ccc5c(c4)OCO5)cc3c2C#Cc2cncn2C)c1 | 35.9 | –
CCC(C)Nc1ccc(NC(C)CC)cc1 (configuration not stated) | 3.31 | –
COC(=O)c1cc(=O)n(-c2ccc(F)cc2)c(=Nc2ccc(F)cc2)s1 | 17.6 | –
Cc1ccc(NC(=O)C2C3/C=C\CCCCC32)cc1C (configuration not stated) | – | 86.3% (inactive)
Cc1ccc2ccc3ccc(C)nc3c2n1 | < 0.2 | –
CCOC(=O)COn1c2c(c3c4no[n+]([O-])c4ccc31)CCCC2 | – | 92.6% (inactive)
Cc1ccc2c(c1)c(C1=c3ccccc3=NC1=O)c(O)n2C | 12.6 | –
CCOC(=O)CNC(=O)[C@H](Cc1ccccc1)NC(=O)OCc1ccccc1 (Cbz-Phe-Gly-OEt) | 43.1 | –
O=C(CSc1nc2ccccc2c(=O)[nH]1)NC1CCCCC1 | – | 92.5% (inactive)
Cc1nn2c(NCc3ccccn3)cc(C(C)C)nc2c1-c1ccccc1 | 2.88 | –
COC(=O)C(C)Oc1ccc(-c2nccc(-c3ccccn3)n2)cc1 (configuration not stated) | – | 91% (inactive)
Oc1ccccc1/C=N/Nc1ccnc(SCc2ccccc2)n1 | 44.9 | –
Cc1nc(SCC(=O)NC2CCCCC2)[nH]c(=O)c1C | – | 106% (inactive)
CC(C)NC(=O)c1sc(=S)n2c1[nH]c(=O)c1ccc(C(=O)NCCc3ccc(Cl)cc3)cc12 | 52.8 | –
CCOC1OC(=O)C(Cl)=C1Nc1ccccc1C (configuration not stated) | – | 81.1% (inactive)

Structure (SMILES) | CC50 [1] [µM] | viability [2]
S=c1nc[nH]c2nc[nH]c12 | 0.56 | –
Cc1cccc(/C=C/C(=O)c2ccc([N+](=O)[O-])o2)c1 | 6.64 | –
O=C(NCC(c1cccs1)N1CCOCC1)c1cc([N+](=O)[O-])cc([N+](=O)[O-])c1 (configuration not stated) | 58.4 | –
COC(=O)C(Nc1nc(SCC(=O)NC2CCCCC2)nc2ccccc12)c1ccccc1 (configuration not stated) | 50.4 | –
CCOC(=O)COc1ccc(/C=C2\NC(=S)N(CC)C2=O)cc1 | – | 89.2% (inactive)
COc1cc(NC(=O)C/C(C)=N/NC(=O)c2ccccn2)c(OC)cc1Cl | – | 101% (inactive)
Cc1ccc(C(=O)N/N=C(/CC(=O)c2cccs2)C(F)(F)F)cc1 | 40.4 | –
c1ccc(/N=C2\N=C(Nc3ccccn3)c3ccccc32)nc1 | < 0.2 | –
CCOC(=O)c1ccc(NC(=O)Cn2ncc(Cl)c(Cl)c2=O)cc1 | 0.88 | –
COC(=O)CCc1nc2c(C#N)c(-c3ccc(Cl)cc3)ccn2n1 | – | 108% (inactive)
Cc1cc(Br)ccc1NC(=O)c1cnc(N2CCN(c3ccccn3)CC2)c2ccccc12 | 35.6 | –
COC(=O)C1CC(=O)N(c2ccc(OCc3ccccc3Cl)cc2)C1 (configuration not stated) | – | 86.1% (inactive)
CCOC(=O)C(C)Sc1ncnc2c1nnn2-c1ccc(F)cc1 (configuration not stated) | 38.7 | –
COC(=O)c1ccc(CNc2c(N3CCCC3)c(=O)c2=O)cc1 | – | 80.7% (inactive)
CNc1nc(SCc2ccccc2Cl)nc2c1CCCC2 | 28 | –
CC[N+](C)(CC)CCCCOc1ccc2c(c1)C(=O)c1cc(OCCCC[N+](C)(CC)CC)ccc1-2 | 23.1 | –
